The text below walks through data of patent US10759751B2, “Substituted spirocyclohexanes as muscarinic M1 receptor and/or M4 receptor agonists” (Heptares Therapeutics Limited, priority 2016, dated 2020).

Molecules are shown by their SMILES. Like-named read-outs stand apart in the source and are kept apart here. Some results are limits rather than exact numbers.

Assay type in all cases: cell-based
For test [1], the target named is T1, human muscarinic M1 receptor (Homo sapiens, UniProt P11229).
T1 sequence (P11229 1-460): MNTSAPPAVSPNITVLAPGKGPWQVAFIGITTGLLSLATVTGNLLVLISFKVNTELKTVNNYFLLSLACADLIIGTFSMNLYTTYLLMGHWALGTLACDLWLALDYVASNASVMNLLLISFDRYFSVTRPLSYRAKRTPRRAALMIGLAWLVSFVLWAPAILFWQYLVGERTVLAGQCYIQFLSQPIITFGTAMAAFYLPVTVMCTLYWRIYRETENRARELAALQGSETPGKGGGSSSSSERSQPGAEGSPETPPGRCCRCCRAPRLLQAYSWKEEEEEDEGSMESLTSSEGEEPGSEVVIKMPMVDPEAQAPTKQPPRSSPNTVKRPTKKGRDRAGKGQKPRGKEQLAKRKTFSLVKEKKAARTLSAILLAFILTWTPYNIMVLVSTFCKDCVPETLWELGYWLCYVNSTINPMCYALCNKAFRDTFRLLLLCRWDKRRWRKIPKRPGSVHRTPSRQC
Description: Alphascreen Surefire phospho-ERK1/2 functional assay, M1. The conditions noted are these: for EC50: phospho-ERK1/2, read-out: pEC50 M1 (converted); for Emax: CHO. The procedure, abridged: (§1)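 Agonist-induced phospho-ERK1/2 is measured in serum-starved CHO cells carrying the human receptor, with a 5 min stimulation at 37 °C. AlphaScreen SureFire quantifies the signal, from which pEC50 and Emax are obtained.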
In general terms: Bead proximity is the source of the signal in Alpha formats.

The target in test [2] is T2, human muscarinic M2 receptor (Homo sapiens, UniProt P08172).
T2 sequence (P08172 1-466): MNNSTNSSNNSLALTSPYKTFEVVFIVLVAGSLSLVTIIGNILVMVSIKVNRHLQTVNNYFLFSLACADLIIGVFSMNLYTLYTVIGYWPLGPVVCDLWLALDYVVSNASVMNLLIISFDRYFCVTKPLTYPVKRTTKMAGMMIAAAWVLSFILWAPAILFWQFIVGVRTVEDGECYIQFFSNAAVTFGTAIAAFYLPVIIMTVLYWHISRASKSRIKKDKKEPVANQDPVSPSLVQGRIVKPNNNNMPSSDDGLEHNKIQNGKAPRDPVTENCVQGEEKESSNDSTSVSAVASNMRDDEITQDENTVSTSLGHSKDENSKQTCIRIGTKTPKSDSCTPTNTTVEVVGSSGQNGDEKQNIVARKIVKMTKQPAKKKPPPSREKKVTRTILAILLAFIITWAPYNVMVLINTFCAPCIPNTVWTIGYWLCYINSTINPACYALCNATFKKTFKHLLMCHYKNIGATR
Description: Alphascreen Surefire phospho-ERK1/2 functional assay, M2. The conditions noted are these: for EC50: CHO cells stably expressing human M2, phospho-ERK1/2, read-out: pEC50 M2 (converted); for Emax: CHO, read-out: M2 % Emax cf. ACh. As to the method:
(§2) Functional assays were performed using the Alphascreen Surefire phospho-ERK1/2 assay (Crouch & Osmond, Comb. Chem. High Throughput Screen, 2008). ERK1/2 phosphorylation is a downstream consequence of both Gq/11 and Gi/o protein coupled receptor activation, making it highly suitable for the assessment of M1, M3 (Gq/11 coupled) and M2, M4 receptors (Gi/o coupled), rather than using different assay formats for different receptor subtypes. CHO cells stably expressing the human muscarinic M1, M2, M3 or M4 receptor were plated (25K/well) onto 96-well tissue culture plates in MEM-alpha+10% dialysed FBS. Once adhered, cells were serum-starved overnight. Agonist stimulation was performed by the addition of 5 μL agonist to the cells for 5 min (37° C.). Media was removed and 50 μL of lysis buffer added. After 15 min, a 4 μL sample was transferred to 384-well plate and 7 μL of detection mixture added. Plates were incubated for 2 h with gentle agitation in the dark and then read on a PHERAstar plate reader.
(§3) pEC50 and Emax figures were calculated from the resulting data for each receptor subtype.

Test [3] addresses T3, human muscarinic M3 receptor (Homo sapiens, UniProt P20309).
T3 construct: expressed in transfected cells
In words: Alphascreen Surefire phospho-ERK1/2 functional assay, M3. The conditions noted are these: for EC50: CHO cells stably expressing human M3, phospho-ERK1/2, read-out: pEC50 M3 (converted); for Emax: CHO, read-out: M3 % Emax cf. ACh. As to the method:
as §2, §3

Test [4] has as its target T4, human muscarinic M4 receptor (Homo sapiens, UniProt P08173).
T4 construct: expressed in transfected cells
T4 sequence (P08173 1-479): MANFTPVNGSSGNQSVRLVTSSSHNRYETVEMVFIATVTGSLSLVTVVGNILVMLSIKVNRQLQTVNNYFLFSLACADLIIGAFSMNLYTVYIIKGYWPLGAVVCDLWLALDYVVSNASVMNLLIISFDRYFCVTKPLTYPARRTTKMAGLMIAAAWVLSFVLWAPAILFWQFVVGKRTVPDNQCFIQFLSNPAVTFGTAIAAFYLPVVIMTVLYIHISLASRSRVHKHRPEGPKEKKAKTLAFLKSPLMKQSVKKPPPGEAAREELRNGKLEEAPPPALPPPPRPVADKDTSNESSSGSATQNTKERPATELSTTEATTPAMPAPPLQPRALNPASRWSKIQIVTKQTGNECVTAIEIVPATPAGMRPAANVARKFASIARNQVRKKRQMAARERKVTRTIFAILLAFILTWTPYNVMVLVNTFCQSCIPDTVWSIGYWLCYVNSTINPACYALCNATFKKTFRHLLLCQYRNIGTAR
In words: Alphascreen Surefire phospho-ERK1/2 functional assay, M4. The conditions noted are these: for EC50: phospho-ERK1/2, read-out: pEC50 M4 (converted); for Emax: CHO. In a few lines:
as §1

Where [5] appears, read: CHO cells stably expressing human M1.
[6] abbreviates: read-out: M1 % Emax cf. ACh, CHO cells stably expressing human M1, Emax relative to ACh.
The mark [7] stands for this setting: CHO cells stably expressing human M4.
Setting [8] is: read-out: M4 % Emax cf. ACh, CHO cells stably expressing human M4, Emax relative to ACh.

T3 sequence (P20309 whole entry): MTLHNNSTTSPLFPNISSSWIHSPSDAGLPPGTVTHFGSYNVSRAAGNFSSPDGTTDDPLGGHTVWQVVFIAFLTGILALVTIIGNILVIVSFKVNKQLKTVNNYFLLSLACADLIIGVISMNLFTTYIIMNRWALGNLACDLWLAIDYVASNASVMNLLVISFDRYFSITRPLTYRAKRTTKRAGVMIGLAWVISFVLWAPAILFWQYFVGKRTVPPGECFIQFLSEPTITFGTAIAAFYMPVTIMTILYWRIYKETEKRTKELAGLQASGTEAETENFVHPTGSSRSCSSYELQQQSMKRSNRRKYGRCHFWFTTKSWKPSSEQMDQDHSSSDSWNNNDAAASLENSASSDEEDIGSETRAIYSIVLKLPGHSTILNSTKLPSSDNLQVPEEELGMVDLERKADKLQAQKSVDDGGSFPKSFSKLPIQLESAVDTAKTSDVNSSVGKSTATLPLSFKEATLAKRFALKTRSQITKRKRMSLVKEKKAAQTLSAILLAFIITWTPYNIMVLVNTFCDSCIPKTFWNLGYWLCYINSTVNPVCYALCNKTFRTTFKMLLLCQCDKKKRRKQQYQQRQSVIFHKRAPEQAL

As to `Cc1noc([C@@H]2CCCN(C3CCC4(CC3)C(=O)Nc3ccccc34)C2)n1` (single isomer, unassigned) [22-1 Isomer 1], the EC50 was 229 nM in test [1] (setting [5]), over 20000 nM in test [2], over 20000 nM in test [3] and 398 nM in test [4] (setting [7]). In addition, the Emax came out at 83% in test [1] (setting [6]), 11% in test [2], 11% in test [3] and 47% in test [4] (setting [8]).
On to `CCOC(=O)N1CCCN(C2CCC3(CC2)C(=O)Nc2ccc(OC)cc23)CC1` (single isomer, unassigned) [4-12 isomer 1], for which the EC50 in test [1] (setting [5]) is 89.1 nM; in test [2], over 20000 nM; in test [3], over 20000 nM; in test [4] (setting [7]), over 20000 nM. Further, the Emax in test [1] (setting [6]) is 107%; in test [2], 3%; in test [3], 34%; in test [4] (setting [8]) it was 10%.
Consider `CCOC(=O)N1CCCN(C2CCC(C#N)(c3cccc(F)c3)CC2)CC1` (mixture of isomers) [3-2 mixture of isomers], for which the EC50 was 25.1 nM in test [1] (setting [5]), over 20000 nM in test [2], over 20000 nM in test [3] and 74.1 nM in test [4] (setting [7]). The Emax in test [1] (setting [6]) was determined as 96%; in test [2] it was 7%; in test [3], 46%; in test [4] (setting [8]), 76%.
`CCOC(=O)N1CCCN(C2CCC(C#N)(c3ccc(Cl)cc3)CC2)CC1` (mixture of isomers) [3-6 mixture of isomers]: the EC50 is 9.55 nM in test [1] (setting [5]), over 20000 nM in test [2], over 20000 nM in test [3] and 100 nM in test [4] (setting [7]). For the same compound, the Emax is 105% in test [1] (setting [6]), 11% in test [2], 38% in test [3] and 62% in test [4] (setting [8]).
On to `CCOC(=O)N1CCC2(CCN(C3CCC(C#N)(c4ccccc4)CC3)CC2)C1` (single isomer, unassigned) [13-1 Isomer 2], for which the EC50 was 0.447 nM in test [1] (setting [5]), over 20000 nM in test [2], over 20000 nM in test [3] and 0.145 nM in test [4] (setting [7]). The Emax came out at 121% in test [1] (read-out: M1 % Emax cf. ACh), 21% in test [2], 7% in test [3] and 121% in test [4] (read-out: M4 % Emax cf. ACh).
In the case of `CCOC(=O)N[C@H]1CCN(C2CCC(C#N)(c3ccccc3)CC2)C1` (single isomer, unassigned) [1-1 Isomer 2], the EC50 in test [1] (setting [5]) is 51.3 nM; in test [2], over 20000 nM; in test [3] it was over 20000 nM; in test [4] (setting [7]), over 20000 nM. Moreover, the Emax in test [1] (setting [6]) turned out to be 117%; in test [2] it was 3%; in test [3], 18%; in test [4] (setting [8]) it was 18%.
In the case of `Cc1ccc2c(c1)C1(CCC(N3CCC[C@@H](c4nc(C)no4)C3)CC1)C(=O)N2` (single isomer, unassigned) [22-3 Isomer 1], the EC50 is 123 nM in test [1] (setting [5]), over 20000 nM in test [2], over 20000 nM in test [3] and 141 nM in test [4] (setting [7]). For the same compound, the maximum response (Emax) was found to be 51% in test [1] (setting [6]), 17% in test [2], 59% in test [3] and 40% in test [4] (setting [8]).
On to `N#CC1(c2ccccc2)CCC(N2CC3(CC(c4nc(C(F)(F)F)no4)C3)C2)CC1` (single isomer, unassigned) [20-1 Isomer 2], for which the EC50 in test [1] (setting [5]) is 219 nM; in test [2] it was over 20000 nM; in test [3] it was over 20000 nM; in test [4] (setting [7]), 126 nM. The Emax in test [1] (setting [6]) is 78%; in test [2], 61%; in test [3] it was 30%; in test [4] (setting [8]) it was 58%.
Consider `CCOC(=O)N[C@H]1CCN(C2CCC3(CC2)C(=O)Nc2cc(F)ccc23)C1` (single isomer, unassigned) [2-7 isomer 2], for which the “M1 % Emax cf. ACh” value in test [1] (CHO cells stably expressing human M1, Emax relative to ACh) stood at 89%. In addition, the EC50 in test [1] (setting [5]) was 52.5 nM; in test [2] it was over 20000 nM; in test [3] it was over 20000 nM; in test [4] (setting [7]), over 20000 nM. Further, the Emax in test [2] was 5%; in test [3], 2%. Also, in test [4] (CHO cells stably expressing human M4, Emax relative to ACh), the “M4 % Emax cf. ACh” value is given as 16%.
Turning to `CCOC(=O)NCC1CCN(C2CCC(C#N)(c3ccccc3)CC2)CC1` (single isomer, unassigned) [6-2-Isomer 2], the EC50 in test [1] (setting [5]) is 58.9 nM; in test [2], over 20000 nM; in test [3] it was over 20000 nM; in test [4] (setting [7]) it was 53.7 nM. Further, the Emax is 129% in test [1] (setting [6]), 0% in test [2], 12% in test [3] and 49% in test [4] (setting [8]).
`CCOC(=O)N(C)[C@@H]1CCN(C2CCC3(CC2)C(=O)Nc2ncccc23)C1` (single isomer, unassigned) [2-18 isomer 1]: the EC50 in test [1] (setting [5]) is 148 nM; in test [2], over 20000 nM; in test [3], over 20000 nM; in test [4] (setting [7]) it was 174 nM. Also, the Emax in test [1] (setting [6]) was found to be 122%; in test [2], 21%; in test [3], 11%; in test [4] (setting [8]), 141%.
With `CCOC(=O)N[C@H]1CCN(C2CCC3(CC2)C(=O)Nc2ccc(C)cc23)C1` (single isomer, unassigned) [2-5 isomer 1], the EC50 is 7.76 nM in test [1] (setting [5]), over 20000 nM in test [2], over 20000 nM in test [3] and over 15800 nM in test [4] (setting [7]). Further, the Emax was found to be 49% in test [1] (setting [6]), 13% in test [2], 15% in test [3] and 5% in test [4] (setting [8]).
In the case of `CCOC(=O)N[C@H]1CCN(C2CCC3(CC2)C(=O)Nc2ncc(Cl)cc23)C1` (single isomer, unassigned) [2-17 isomer 1], the EC50 in test [1] (setting [5]) is 56.2 nM; in test [2] it was over 20000 nM; in test [3] it was over 20000 nM; in test [4] (setting [7]) it was over 20000 nM. Also, the Emax in test [1] (setting [6]) was found to be 48%; in test [2], 7%; in test [3], 7%; in test [4] (setting [8]), 18%.
Turning to `CCOC(=O)N[C@H]1CCN(C2CCC3(CC2)C(=O)Nc2ccc(OC)cc23)C1` (single isomer, unassigned) [2-10 isomer 1], the EC50 is 7.94 nM in test [1] (setting [5]), over 20000 nM in test [2], over 20000 nM in test [3] and over 20000 nM in test [4] (setting [7]). The Emax in test [1] (setting [6]) stood at 64%; in test [2] it was 27%; in test [3], 4%; in test [4] (setting [8]) it was 39%.

As usually defined, the Emax is the maximal effect, on the per cent scale that the assay sets.
